# In ChEMBL document CHEMBL1201862, “PubChem BioAssay data set” (2004):
# Active and inactive are the calls of the source.
# How the values were obtained:
# [1] = biological target: Voltage-gated inwardly rectifying potassium channel KCNH2 (Homo sapiens, UniProt Q12809); conditions: Potency;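 further: confirmatory quantitative high-throughput screen measuring inhibition of hERG channel activity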
# [2] = viability of uninfected HEp-2 cells – cell-based, HTS, cytotoxicity control for RSV inhibitor project, dose response (AID 2410); assay type: functional; conditions: human respiratory syncytial virus
# [3] = biological target: Heat shock protein HSP 90-alpha (Homo sapiens, UniProt P07900); assay type: functional, organism-based
# HEK293 [4] = assay: cells; conditions: Homo sapiens
# [5] = biological target: T1, Polyadenylate-binding protein 1 (Homo sapiens, UniProt P11940); assay: MLLE binding blockers, Cy5 peptide tracer – biochemical, fluorescence polarization, Cy5-PAM2 peptide, secondary, miRNA deadenylation inhibitor project, dose response (AID 602260); assay type: functional; conditions: read-out: IC50_Mean
# T1 sequence (P11940 whole entry, the tested form may be a part): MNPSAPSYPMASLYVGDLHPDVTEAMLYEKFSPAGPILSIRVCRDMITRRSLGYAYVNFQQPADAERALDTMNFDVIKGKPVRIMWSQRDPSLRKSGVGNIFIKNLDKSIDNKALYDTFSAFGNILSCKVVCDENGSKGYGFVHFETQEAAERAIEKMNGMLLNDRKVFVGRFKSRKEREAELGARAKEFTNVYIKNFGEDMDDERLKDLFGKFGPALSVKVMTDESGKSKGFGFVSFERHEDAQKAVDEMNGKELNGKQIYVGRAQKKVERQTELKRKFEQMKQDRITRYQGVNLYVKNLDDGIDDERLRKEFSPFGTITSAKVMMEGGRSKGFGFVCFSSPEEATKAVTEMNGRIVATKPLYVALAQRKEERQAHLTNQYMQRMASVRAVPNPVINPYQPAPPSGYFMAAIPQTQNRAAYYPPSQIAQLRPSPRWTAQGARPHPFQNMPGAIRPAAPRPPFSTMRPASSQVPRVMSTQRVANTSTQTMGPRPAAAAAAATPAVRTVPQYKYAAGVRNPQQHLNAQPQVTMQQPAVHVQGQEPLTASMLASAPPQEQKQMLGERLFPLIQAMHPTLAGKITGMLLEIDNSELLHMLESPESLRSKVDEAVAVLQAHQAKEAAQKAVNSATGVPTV
# [6] = biological target: T1, Polyadenylate-binding protein 1; assay: MLLE domain peptide-binding blockers, IC50 – biochemical, fluorescence polarization, FITC-PAM2 peptide, dose response (AID 602259); assay type: functional; conditions: read-out: IC50_Mean
# [7] = loss of viability in HepG2 cells – cell-based, CellTiter-Glo, cherry-picked, cytotoxicity control for Shn3 inhibitor project, dose response (AID 624134); assay type: functional
# [8] = non-specific 3'UTR reporter inhibition in Clone20-Shn3RL – cell-based, Renilla luciferase, cherry-picked, counter-screen for Shn3 inhibitor project, dose response (AID 624133); assay type: functional
# [9] = reduction of Shn3 3'UTR-driven luciferase in osteoblasts – cell-based, Clone20 osteoblasts, firefly luciferase, cherry-picked, dose response (AID 624132); assay type: functional;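 further: firefly luciferase luminescence from reporter carrying the Shn3 3'UTR in osteoblasts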
# HEK293 [10] = assay: cells; conditions: Homo sapiens; remark: listed apart in the source
# [11] = biological target: T2, Microphthalmia-associated transcription factor (Homo sapiens, UniProt O75030); assay: reducers of TRPM1 reporter luminescence, concentration series – cell-based, SK-MEL-5, cherry-picked, set 3, MITF inhibitor project, dose response (AID 493073); assay type: functional;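 further: SK-MEL-5 melanoma cells with luciferase driven by the MITF target TRPM1 promoter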
# T2 sequence (O75030 whole entry): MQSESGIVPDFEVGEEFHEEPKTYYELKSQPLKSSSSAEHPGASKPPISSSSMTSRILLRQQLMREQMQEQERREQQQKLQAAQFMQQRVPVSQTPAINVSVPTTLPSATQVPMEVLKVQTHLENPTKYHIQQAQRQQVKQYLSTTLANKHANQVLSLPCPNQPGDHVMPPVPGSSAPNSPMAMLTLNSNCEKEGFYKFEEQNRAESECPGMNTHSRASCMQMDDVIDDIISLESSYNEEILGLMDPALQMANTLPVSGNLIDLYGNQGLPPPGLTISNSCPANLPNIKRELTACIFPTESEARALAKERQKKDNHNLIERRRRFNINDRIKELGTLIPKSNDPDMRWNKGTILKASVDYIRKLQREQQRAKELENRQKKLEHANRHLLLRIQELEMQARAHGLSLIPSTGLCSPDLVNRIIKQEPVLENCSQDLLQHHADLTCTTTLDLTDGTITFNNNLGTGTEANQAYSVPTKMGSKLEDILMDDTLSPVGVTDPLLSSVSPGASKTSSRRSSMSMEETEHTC
# A-375 = assay: proliferation inhibition in MITF-low A375 cells – cell-based, cherry-pick samples, set 2, counter-screen for MITF modulator project, dose response (AID 540335); assay type: functional; conditions: Homo sapiens
# [12] = reduced cellular PGC1a acetyl-lysine signal – cell-based, cherry-picked samples, dose response (AID 720514); assay type: functional;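 further: potency may reflect raised or lowered acetylation signal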
# INS1 = assay: INS-1E survival protection against cytokine death – cell-based, luminescence, retest, dose response (AID 449756); assay type: functional; conditions: Rattus norvegicus;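 further: cell death triggered by IL-1 beta plus TNF-alpha plus IFN-gamma mixture; protective hits raise ATP signal compared with cytokine alone wells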
# Caspase-3 [13] = biological target: T3, Caspase-3 (Homo sapiens, UniProt P42574); assay: SAR Analysis of small molecule inhibitors of Sentrin-specific proteases (SENPs) using a Caspase-3 Selectivity assay. [Related pubchem assays (depositor defined):AID2540, AID2599, AID434973, AID489001]; assay type: functional
# T3 sequence (P42574 whole entry): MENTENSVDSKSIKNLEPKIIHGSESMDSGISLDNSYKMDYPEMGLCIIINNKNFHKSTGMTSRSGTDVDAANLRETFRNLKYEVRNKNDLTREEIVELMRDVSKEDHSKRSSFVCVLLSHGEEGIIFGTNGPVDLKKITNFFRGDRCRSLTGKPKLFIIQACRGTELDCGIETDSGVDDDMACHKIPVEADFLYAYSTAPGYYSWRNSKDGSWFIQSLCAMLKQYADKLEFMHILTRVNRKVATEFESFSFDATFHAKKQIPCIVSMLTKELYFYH
# [14] = biological target: T4, Sentrin-specific protease 6 (Homo sapiens, UniProt Q9GZR1); assay: inhibition of human SENP6 catalytic domain – biochemical, luminescence, set 2, SAR follow-up (AID 588598); assay type: functional
# T4 sequence (Q9GZR1 whole entry): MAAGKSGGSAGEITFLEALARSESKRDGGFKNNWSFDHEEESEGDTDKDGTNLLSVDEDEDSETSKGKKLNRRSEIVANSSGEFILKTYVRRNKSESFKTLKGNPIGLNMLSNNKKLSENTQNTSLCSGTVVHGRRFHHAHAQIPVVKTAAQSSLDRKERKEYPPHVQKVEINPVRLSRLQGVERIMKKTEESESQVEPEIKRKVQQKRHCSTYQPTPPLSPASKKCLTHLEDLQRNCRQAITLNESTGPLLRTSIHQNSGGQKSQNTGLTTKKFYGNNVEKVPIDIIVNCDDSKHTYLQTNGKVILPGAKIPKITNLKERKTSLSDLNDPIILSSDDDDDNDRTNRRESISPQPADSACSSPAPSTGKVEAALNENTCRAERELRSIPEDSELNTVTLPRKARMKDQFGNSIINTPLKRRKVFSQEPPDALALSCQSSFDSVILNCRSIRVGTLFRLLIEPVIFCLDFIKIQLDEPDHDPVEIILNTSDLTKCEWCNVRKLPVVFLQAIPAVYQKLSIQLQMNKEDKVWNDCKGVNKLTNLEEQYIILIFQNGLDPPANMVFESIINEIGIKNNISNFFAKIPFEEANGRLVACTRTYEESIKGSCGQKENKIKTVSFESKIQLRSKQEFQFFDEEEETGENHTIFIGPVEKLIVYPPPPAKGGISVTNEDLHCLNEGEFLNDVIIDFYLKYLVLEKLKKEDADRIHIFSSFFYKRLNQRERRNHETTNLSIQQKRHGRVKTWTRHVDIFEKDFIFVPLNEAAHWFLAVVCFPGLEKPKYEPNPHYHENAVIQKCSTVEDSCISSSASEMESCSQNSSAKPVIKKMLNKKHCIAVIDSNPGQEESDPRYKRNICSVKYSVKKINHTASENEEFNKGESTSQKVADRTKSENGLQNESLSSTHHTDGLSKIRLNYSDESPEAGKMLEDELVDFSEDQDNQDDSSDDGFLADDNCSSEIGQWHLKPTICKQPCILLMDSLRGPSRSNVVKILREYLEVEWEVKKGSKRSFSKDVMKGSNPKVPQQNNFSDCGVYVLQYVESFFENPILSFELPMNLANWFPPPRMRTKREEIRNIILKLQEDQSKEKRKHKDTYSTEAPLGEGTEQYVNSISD
# [15] = biological target: T5, Sentrin-specific protease 7 (Homo sapiens, UniProt Q9BQF6); assay: inhibition of human SENP7 cleavage activity – biochemical, luminescence, SAR follow-up (AID 504497); assay type: functional
# T5 sequence (Q9BQF6 whole entry): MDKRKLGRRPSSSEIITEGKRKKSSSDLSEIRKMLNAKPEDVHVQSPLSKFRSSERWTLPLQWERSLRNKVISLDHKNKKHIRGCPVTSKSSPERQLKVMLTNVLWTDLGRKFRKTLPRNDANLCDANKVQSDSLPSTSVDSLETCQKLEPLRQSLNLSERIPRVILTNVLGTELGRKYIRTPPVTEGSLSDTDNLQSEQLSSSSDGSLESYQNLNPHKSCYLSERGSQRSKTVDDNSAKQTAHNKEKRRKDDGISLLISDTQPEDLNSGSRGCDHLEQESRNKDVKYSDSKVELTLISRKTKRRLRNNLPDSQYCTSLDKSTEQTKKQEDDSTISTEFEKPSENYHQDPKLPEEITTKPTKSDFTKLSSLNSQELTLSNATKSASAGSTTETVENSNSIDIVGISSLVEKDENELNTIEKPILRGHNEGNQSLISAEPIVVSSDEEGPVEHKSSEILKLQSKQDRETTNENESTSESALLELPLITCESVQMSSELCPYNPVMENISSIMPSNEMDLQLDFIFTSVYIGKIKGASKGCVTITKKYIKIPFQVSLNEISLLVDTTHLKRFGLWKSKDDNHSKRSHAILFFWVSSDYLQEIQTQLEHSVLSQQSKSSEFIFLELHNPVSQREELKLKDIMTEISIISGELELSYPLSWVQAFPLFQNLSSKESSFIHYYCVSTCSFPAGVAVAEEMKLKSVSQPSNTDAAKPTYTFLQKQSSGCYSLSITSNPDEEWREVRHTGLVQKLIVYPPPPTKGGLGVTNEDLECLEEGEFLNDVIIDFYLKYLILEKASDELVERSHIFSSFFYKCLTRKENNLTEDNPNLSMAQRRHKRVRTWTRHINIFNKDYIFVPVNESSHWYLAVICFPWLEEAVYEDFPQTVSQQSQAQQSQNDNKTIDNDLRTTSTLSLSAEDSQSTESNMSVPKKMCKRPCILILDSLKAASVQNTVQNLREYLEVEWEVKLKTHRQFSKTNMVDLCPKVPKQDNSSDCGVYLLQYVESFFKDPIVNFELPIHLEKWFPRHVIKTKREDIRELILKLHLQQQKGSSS
# [16] = biological target: T5, Sentrin-specific protease 7; assay: inhibition of human SENP7 cleavage activity – biochemical, luminescence, set 2, SAR follow-up (AID 588600); assay type: functional
# [17] = biological target: T6, Sentrin-specific protease 8 (Homo sapiens, UniProt Q96LD8); assay: inhibition of sentrin protease 8 – biochemical, luminescence, set 2, SAR follow-up (AID 588601); assay type: functional
# T6 sequence (Q96LD8 whole entry): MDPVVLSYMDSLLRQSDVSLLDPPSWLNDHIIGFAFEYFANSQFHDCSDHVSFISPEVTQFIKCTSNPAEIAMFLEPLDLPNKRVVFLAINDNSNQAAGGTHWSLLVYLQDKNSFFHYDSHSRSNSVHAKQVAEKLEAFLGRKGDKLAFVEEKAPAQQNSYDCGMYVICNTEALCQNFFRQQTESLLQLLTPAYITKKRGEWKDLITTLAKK
# [18] = biological target: T6, Sentrin-specific protease 8; assay: inhibition of human SENP8 cleavage activity – biochemical, luminescence, SAR follow-up (AID 504501); assay type: functional
# Caspase-3 [19] = biological target: T3, Caspase-3; assay: inhibition of recombinant caspase-3 activity – biochemical, luminescence, set 2, selectivity assay for SENP protease inhibitor project, SAR follow-up (AID 588599); assay type: functional
# [20] = biological target: T4, Sentrin-specific protease 6; assay: SAR Analysis of small molecule inhibitors of Sentrin-specific protease 6 (SENP6) using a Luminescent assay. [Related pubchem assays (depositor defined):AID2582, AID2599]; assay type: functional
# Vero = assay: cells; assay type: functional; conditions: Chlorocebus sabaeus
# Beta-galactosidase = Beta-galactosidase (Escherichia coli, UniProt Q8VNN2); assay: detection-enzyme interference by beta-gal modulators – biochemical, E. coli enzyme, set 3, artefact control for CCR6 antagonist project, dose response (AID 504712); assay type: functional
# Sequence of Beta-galactosidase (Q8VNN2 whole entry): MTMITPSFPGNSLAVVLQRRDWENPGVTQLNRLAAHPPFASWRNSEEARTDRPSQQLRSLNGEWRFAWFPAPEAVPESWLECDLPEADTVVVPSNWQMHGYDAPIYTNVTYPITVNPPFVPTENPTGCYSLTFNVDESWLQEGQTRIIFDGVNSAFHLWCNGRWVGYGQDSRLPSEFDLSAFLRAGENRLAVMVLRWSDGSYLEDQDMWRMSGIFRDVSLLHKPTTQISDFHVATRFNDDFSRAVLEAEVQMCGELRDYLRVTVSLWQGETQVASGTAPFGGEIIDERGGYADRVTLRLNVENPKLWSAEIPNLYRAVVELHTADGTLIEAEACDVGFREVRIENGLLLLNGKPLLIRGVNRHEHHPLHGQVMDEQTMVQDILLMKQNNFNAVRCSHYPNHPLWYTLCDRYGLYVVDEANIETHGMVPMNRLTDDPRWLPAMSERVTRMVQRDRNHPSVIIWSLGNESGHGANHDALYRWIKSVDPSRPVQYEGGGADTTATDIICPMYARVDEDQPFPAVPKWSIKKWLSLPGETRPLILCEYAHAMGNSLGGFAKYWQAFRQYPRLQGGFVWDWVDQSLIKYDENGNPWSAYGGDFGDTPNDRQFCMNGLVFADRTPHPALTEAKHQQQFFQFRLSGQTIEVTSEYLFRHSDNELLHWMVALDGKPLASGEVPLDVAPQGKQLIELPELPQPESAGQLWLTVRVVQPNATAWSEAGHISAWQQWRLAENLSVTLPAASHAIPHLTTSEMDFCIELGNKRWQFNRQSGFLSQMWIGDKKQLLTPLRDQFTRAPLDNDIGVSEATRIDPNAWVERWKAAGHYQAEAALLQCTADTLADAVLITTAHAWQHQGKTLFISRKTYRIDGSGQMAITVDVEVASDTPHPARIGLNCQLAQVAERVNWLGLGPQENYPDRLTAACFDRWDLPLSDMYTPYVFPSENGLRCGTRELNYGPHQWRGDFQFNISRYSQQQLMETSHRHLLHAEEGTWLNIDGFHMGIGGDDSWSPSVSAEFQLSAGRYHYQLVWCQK
# Cytochrome P450 3A4 = Cytochrome P450 3A4 (Homo sapiens, UniProt P08684);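 further: CYP3A4 tested as one member of a cytochrome P450 panel screen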
# Sequence of Cytochrome P450 3A4 (P08684 whole entry): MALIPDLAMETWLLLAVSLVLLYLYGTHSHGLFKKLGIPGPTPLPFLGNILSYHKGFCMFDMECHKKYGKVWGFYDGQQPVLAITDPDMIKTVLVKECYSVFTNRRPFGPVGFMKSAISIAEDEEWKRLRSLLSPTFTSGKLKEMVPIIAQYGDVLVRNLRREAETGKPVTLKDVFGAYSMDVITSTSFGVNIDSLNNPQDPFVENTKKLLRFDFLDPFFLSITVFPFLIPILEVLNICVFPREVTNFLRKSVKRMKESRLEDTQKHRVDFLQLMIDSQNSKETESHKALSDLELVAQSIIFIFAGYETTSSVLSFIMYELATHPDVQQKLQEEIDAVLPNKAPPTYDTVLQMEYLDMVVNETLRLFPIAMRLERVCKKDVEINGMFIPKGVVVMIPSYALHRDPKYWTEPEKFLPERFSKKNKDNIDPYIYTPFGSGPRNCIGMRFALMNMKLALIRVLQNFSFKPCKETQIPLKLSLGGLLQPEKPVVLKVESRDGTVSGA
# Sequence of Voltage-gated inwardly rectifying potassium channel KCNH2 (Q12809 whole entry): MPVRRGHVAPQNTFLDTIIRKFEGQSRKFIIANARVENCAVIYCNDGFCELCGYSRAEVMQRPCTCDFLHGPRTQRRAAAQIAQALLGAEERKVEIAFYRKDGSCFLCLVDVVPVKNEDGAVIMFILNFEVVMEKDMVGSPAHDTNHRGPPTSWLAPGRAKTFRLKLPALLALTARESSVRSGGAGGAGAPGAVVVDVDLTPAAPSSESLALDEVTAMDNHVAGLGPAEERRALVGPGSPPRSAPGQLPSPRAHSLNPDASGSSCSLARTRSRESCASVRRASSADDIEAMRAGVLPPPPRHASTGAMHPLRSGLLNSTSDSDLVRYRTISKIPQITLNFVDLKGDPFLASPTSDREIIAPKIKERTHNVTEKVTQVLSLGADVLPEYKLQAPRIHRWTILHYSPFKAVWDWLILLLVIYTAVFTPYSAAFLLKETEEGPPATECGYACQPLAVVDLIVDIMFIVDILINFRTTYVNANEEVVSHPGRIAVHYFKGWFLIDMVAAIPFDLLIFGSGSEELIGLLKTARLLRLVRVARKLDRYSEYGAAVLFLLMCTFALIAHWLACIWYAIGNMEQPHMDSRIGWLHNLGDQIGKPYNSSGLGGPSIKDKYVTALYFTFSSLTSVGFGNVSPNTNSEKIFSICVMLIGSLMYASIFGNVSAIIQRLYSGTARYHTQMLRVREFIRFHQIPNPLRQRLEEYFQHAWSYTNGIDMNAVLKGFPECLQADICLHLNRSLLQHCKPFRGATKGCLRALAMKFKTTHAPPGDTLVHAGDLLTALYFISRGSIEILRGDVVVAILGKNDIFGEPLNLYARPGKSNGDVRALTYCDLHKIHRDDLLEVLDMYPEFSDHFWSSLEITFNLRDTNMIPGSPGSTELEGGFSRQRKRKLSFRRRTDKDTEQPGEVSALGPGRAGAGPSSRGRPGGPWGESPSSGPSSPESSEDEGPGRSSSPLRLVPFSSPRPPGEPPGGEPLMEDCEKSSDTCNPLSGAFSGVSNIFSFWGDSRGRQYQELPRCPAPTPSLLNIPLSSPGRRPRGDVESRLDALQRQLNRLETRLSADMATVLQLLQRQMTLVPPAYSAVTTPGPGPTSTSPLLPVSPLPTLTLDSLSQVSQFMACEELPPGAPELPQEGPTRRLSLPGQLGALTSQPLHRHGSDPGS
smiles,measurement,setting,value
CCCCCCCCCCCCCCCC(=O)OC(CC(=O)O)C[N+](C)(C)C (stereo not drawn),AC50,[1],35.5 µM (inconclusive)
same,CC50,[2],23.7 µM (active)
same,AC50,[3],1.39 µM (active)
COc1ccc(OC)c(/C=C/C(=O)N2C(=O)c3cccc(N)c3C2=O)c1,EC50,HEK293 [4],> 59.7 µM (inactive)
same,IC50,[5],> 66 µM (inactive)
same,IC50,[6],> 66 µM (inactive)
same,AC50,[7],58.5 µM (active)
same,AC50,[8],26.6 µM (active)
same,AC50,[9],3.25 µM (active)
same,EC50,HEK293 [10],> 59.7 µM (inactive)
COc1cc(NC(=O)c2[nH]cnc2C(N)=O)cc(C(=O)Nc2cccc(C(F)(F)F)c2)c1,AC50,[11],10.9 µM (active)
same,AC50,A-375,17 µM (active)
same,AC50,[12],6.34 µM (active)
same,AC50,INS1,3.48 µM (active)
Cc1csc(C(=O)Nc2nc3ccccc3s2)c1,IC50,Caspase-3 [13],3.6 µM (active)
same,IC50,[14],23.4 µM (active)
same,IC50,[15],1.8 µM (active)
same,IC50,[16],19.2 µM (active)
same,IC50,[17],21.4 µM (active)
same,IC50,[18],3.2 µM (active)
same,IC50,Caspase-3 [19],34 µM (active)
same,IC50,[20],2.8 µM (active)
Cc1ccccc1-c1noc(/C(C#N)=C\c2ccc3c(c2)OCCO3)n1,IC50,[14],4.82 µM (active)
same,IC50,[16],5.42 µM (active)
same,IC50,[17],> 99 µM (inactive)
same,IC50,Caspase-3 [19],2.16 µM (active)
O=C1Nc2ccc(Br)cc2/C1=C/C(=O)c1ccccc1,EC50,HEK293 [4],> 59.6 µM (inactive)
same,CC50,Vero,19.1 µM (active)
same,EC50,HEK293 [10],> 59.6 µM (inactive)
same,IC50,Beta-galactosidase,> 66.6 µM (inactive)
same,AC50,[3],0.986 µM (active)
[Cl-].[Li+] [CHLOROLITHIUM],AC50,[1],6.31 µM (inconclusive)
same,AC50,Cytochrome P450 3A4,31.6 µM (inconclusive)
